Data taken from paper PMC3375280 (PLoS ONE, 2012).
Where a chain is given by its changes, count along the chain named.

Assays:
[1] = biological target: T1, AT1 wild-type (WT) receptor (Rattus norvegicus, UniProt P25095); experiment: 125I-[Sar1,Ile8]AngII competition binding, wild-type receptor; settings: for Kd / Kd ratio relative to olmesartan (in parentheses): WT; for Kd: COS1 cell membranes, 100 pM 125I-[Sar1,Ile8]AngII, 1 h 22°C, read-out: Binding affinity (Kd); for Kd ratio relative to olmesartan (in parentheses): compound Kd / olmesartan Kd
T1 construct: expressed in transfected cells; host or cells: COS1
T1 sequence (P25095 1-359): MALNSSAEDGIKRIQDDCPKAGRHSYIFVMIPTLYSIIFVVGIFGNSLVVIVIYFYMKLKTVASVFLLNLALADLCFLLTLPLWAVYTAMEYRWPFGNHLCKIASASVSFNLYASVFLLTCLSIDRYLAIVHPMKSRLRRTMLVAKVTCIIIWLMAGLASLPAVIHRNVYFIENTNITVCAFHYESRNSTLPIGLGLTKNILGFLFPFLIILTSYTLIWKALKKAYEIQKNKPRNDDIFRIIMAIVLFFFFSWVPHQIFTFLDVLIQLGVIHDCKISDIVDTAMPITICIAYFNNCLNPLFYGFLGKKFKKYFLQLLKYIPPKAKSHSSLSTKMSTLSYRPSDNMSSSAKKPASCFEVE
Method: (§1) The Kd and Bmax values of receptor binding were determined by ^125I-[Sar^1, Ile^8] […] Membranes expressing the WT or mutant AT1 receptors were incubated with 100 pM ^125I-[Sar^1, Ile^8] […] The binding reaction was terminated by filtering the incubation mixture through Whatman GF/C glass filters, and the residues were extensively washed further with binding buffer. The bound ligand fraction was determined from the counts per minute (cpm) remaining on the membrane. Binding kinetics values were determined as previously described.

[2] = biological target: T2, AT1 Y113F mutant receptor (Rattus norvegicus, UniProt P25095, Y113F); experiment: competition binding, Y113F mutant; settings: for Kd ratio relative to WT (in parentheses): Y113F / WT; for Kd: Y113F, COS1 membranes, read-out: Binding affinity (Kd)
T2 construct: expressed in transfected cells; host or cells: COS1
T2 sequence (P25095 1-359 Y113F): T1 sequence (P25095 1-359) with Y113F
Method: as §1

[3] = biological target: T3, AT1 A114G mutant receptor (Rattus norvegicus, UniProt P25095, A114G); experiment: competition binding, A114G mutant; settings: for Kd ratio relative to WT (in parentheses): A114G / WT; for Kd: A114G, COS1 membranes, read-out: Binding affinity (Kd)
T3 construct: expressed in transfected cells; host or cells: COS1
T3 sequence (P25095 1-359 A114G): T1 sequence (P25095 1-359) with A114G
Method: as §1

[4] = biological target: T4, AT1 S115A mutant receptor (Rattus norvegicus, UniProt P25095, S115A); experiment: competition binding, S115A mutant; settings: for Kd ratio relative to WT (in parentheses): S115A / WT; for Kd: S115A, COS1 membranes, read-out: Binding affinity (Kd)
T4 construct: expressed in transfected cells; host or cells: COS1
T4 sequence (P25095 1-359 S115A): T1 sequence (P25095 1-359) with S115A
Method: as §1

[5] = biological target: T5, AT1 C76A/A106C/C289A mutant receptor (Rattus norvegicus, UniProt P25095, A106C/C289A/C76A); experiment: competition binding, C76A/A106C/C289A mutant; settings: for Kd ratio relative to WT (in parentheses): C76A/A106C/C289A / WT; for Kd: C76A/A106C/C289A, COS1 membranes, read-out: Binding affinity (Kd)
T5 construct: expressed in transfected cells; host or cells: COS1
T5 sequence (P25095 1-359 C76A/A106C/C289A): T1 sequence (P25095 1-359) with C76A, A106C, C289A
Method: as §1

[6] = biological target: T6, AT1 C76A/N111C/C289A mutant receptor (Rattus norvegicus, UniProt P25095, C289A/C76A/N111C); experiment: competition binding, C76A/N111C/C289A mutant; settings: for Kd ratio relative to WT (in parentheses): C76A/N111C/C289A / WT; for Kd: C76A/N111C/C289A, COS1 membranes, read-out: Binding affinity (Kd)
T6 construct: expressed in transfected cells; host or cells: COS1
T6 sequence (P25095 1-359 C76A/N111C/C289A): T1 sequence (P25095 1-359) with C76A, N111C, C289A
Method: as §1

[7] = biological target: T7, wild-type (WT) AT1 receptor (Rattus norvegicus, UniProt P25095); experiment: inositol phosphate (IP) production in COS1 cells expressing WT AT1 receptor; settings: 1 µM compound, vs basal IP production
T7 sequence (P25095 1-359): T1 sequence (P25095 1-359)
Method: The test compounds were added 1 h before the measurement of IP.
The WT and mutant AT1 receptors were transiently transfected into COS1 cells using Lipofectamine 2000 liposomal reagent (Roche Applied Science) according to the manufacturer’s instructions.
Cells expressing the WT and mutant AT1 receptors were incubated for 30 minutes at 22°C with or without the indicated concentrations of ARBs. The cells were washed-out once with the use of excess cold HBSS, and used in an IP production study. Total soluble IP was measured by the perchloric acid extraction method, as described previously [16].

Compound	Kd [1] [nM]	Kd ratio relative to WT (in parentheses) [2] [fold]	Kd [2] [nM]	Kd ratio relative to WT (in parentheses) [3] [fold]	Kd [3] [nM]	Kd ratio relative to WT (in parentheses) [4] [fold]	Kd [4] [nM]	Kd ratio relative to WT (in parentheses) [5] [fold]	Kd [5] [nM]	Kd ratio relative to WT (in parentheses) [6] [fold]	Kd [6] [nM]	Pharmacological behaviour toward IP production (agonism / neutral antagonism / inverse agonism) [7]	Kd ratio relative to olmesartan (in parentheses) [1] [fold]	Kd ratio relative to WT (in parentheses) ([1]; WT / WT) [fold]	Kd ratio relative to WT (in parentheses) ([2]; listed as olmesartan) [fold]
CCCc1nc(C(C)(C)O)c(C(N)=O)n1Cc1ccc(-c2cc(Cc3ccc(O)cc3)ccc2-c2nnn[nH]2)cc1 [R794847]	48 ± 12	8.1	388 ± 54	3.8	183 ± 17	3.1	150 ± 41	4.0	193 ± 73	3.8	180 ± 94	agonism			
CCCc1nc(C(C)(C)O)c(C(N)=O)n1Cc1ccc(-c2ccccc2-c2nnn[nH]2)cc1 [R239470]	0.8 ± 0.3	21	17 ± 3	1.4	1.1 ± 0.1	1.6	1.3 ± 0.4	5.1	4.1 ± 1	6.8	5.4 ± 3	neutral antagonist	0.3		
CCCc1nc(C(C)(C)O)c(C(=O)O)n1Cc1ccc(-c2ccccc2-c2nnn[nH]2)cc1 [Olmesartan, olmesartan, reference compound]	2.3 ± 0.8	23	52 ± 7	1.7	4 ± 1.4	1.3	3.1 ± 1.7	3.9	8.9 ± 4	5.2	12 ± 4	inverse agonist	1.0	1.0	> 10
